Test results reported in patent publication EP1394169A1, “Organometallic complex” (Hwu, Jih-Ru, priority 2002, dated 2004).

Experiments:
2'-deoxyguanosine = assay: Binding and cyclization reaction with 2'-deoxyguanosine (LC-mass)
Experimental: As a comparison, a reaction involving 2'-deoxyguanosine and complex 1 was carried out. Complex 1 bound to the C-2 amino on a guanine to form a Pt-N covalent bond. […] As a result, cleavage at a guanine site required assistance from an external base (e.g., piperidine). In another experiment, an excess of complex 1 was added to a 2'-deoxyguanosine solution, followed by piperidine treatment. An intermediate was detected, at a yield of 42%, with a signal at 1063.9 for (M + H^+) as analyzed by an electron spray ionization detector in LC-mass chromatogram. The intermediate was able to give a cyclization product, at a yield of 80%, with a signal at 792.0 for (M + H^+) upon 350-nm UV light irradiation, but not in the dark. The scheme below depicts the just-described reaction: [drawing 5]

[1] = test system: 160-bp dsDNA fragment was prepared from the 501―660 fragment of pBR322 DNA; assay: Site-specific DNA cleavage of 5'-32P-labeled 160-bp dsDNA fragment (polyacrylamide/urea gel, autoradiogram); format: biochemical; conditions: complex 20―100 µM, 350-nm UV 2.0 h
Experimental: A 160-bp dsDNA fragment was prepared from the 501―660 fragment of pBR322 DNA. It was amplified by the polymerase chain reaction (Bailly & Waring (1995) J. Am. Chem. Soc. 117:7311; Bailly et al. (1993) J. Am Chem. Soc. 115: 3784; and Sayers & Waring (1993) Biochemistry 32: 9094), and labeled at the 5'-terminus with γ-[^32P]-ATP and T4 polynucleotide kinase. A reaction mixture containing a 5'-terminus labeled ^32P-DNA solution, a phosphate buffer (0-10 M, pH 6.0), and complex 1 (20―100 µM) in a Pyrex vial was preincubated at 37°C for 30 min. The reaction mixture was irradiated with 350-nm UV light under aerobic conditions for 2.0 h at room temperature. The bound metal complexes on DNA fragments were removed by using 0.30 N NaCN (pH = 11) at 37°C for 8.0 h (Schwartz et al. (1990) J. Am. Chem. Soc. 112: 3673; and Zou et al. (1994) Biochemistry 33: 5404). The reaction mixture was then quenched with either a gel-loading buffer or 95% ethanol. […] The samples and the Maxam-Gilbert markers were analyzed using 10% polyacrylamide/8.0 M urea gel. […] Quantitation of relative intensities of DNA fragments was performed using a Microtek scanner and NIH 1.60 image program.
The detected DNA fragments were compared with Maxam-Gilbert markers on an autoradiogram, and quantitated by a computer-assisted program.

[2] = test system: supercoiled circular φX174 RFI DNA; assay: Single-strand DNA cleavage of supercoiled circular DNA under 350 nm UV irradiation (agarose gel); format: biochemical; conditions: for (% form I) / (% form II) / (% form II)/ (% form I) / DNA forms observed on gel: 350 nm UV 2.0 h
Experimental: Cleavage at various pH's: A reaction mixture (10 µL) containing supercoiled circular φX174 RFI DNA stock solution (50 µM/base pair), complex 1 (5.0 µM), and a phosphate buffer (0.10 M, pH 5.0, 6.0, 7.0, and 8.0) in a Pyrex vial was preincubated at 37°C. The reaction mixture was then irradiated with 350 nm UV light (32-W) for 2.0 h at room temperature. After adding a gel-loading buffer (025% bomophenol blue, 0.25% xylene cyanol, and 30% glycerol), the reaction mixture was loaded on a 1% agarose gel, followed by ethidium bromide staining. The gel was visualized by a 312-nm UV transilluminator and photographed by a FB-PDC-34 camera. Supercoiled circular DNA and cleaved DNA were clearly seen from the gel.
Cleavage at various complex concentrations: A reaction mixtures (10 µL) containing supercoiled circular φX174 RFI DNA stock solution (50 µM/base pair), complex 1 (0.050―100 µM), and a phosphate buffer (0.10 M, pH 6.0) in a Pyrex vial was preincubated at 37°C. The mixture was irradiated with 350 nm UV light (32-W) for 2.0 h at room temperature. After adding a gel-loading buffer (0.25% bromophenol blue, 0.25% xylene cyanol, and 30% glycerol), the reaction mixture was loaded on a 1% agarose gel, followed by ethidium bromide staining. The gel was visualized by a 312-nm UV transilluminator and photographed by a FB-PDC-34 camera. Supercoiled circular DNA (form I) and cleaved DNA (form II) were clearly seen from the gel.

[3] = test system: supercoiled circular φX174 RFI DNA; assay: as above; format: biochemical; conditions: in the dark
[4] = test system: double helical oligonucleotide d(ATAT)2; assay: DNA binding and cleaving mechanism with oligonucleotide (LC-mass); conditions: 1:1, phosphate buffer pH 6.0, in the dark for 2.0 h
Experimental: A double helical oligonucleotide d(ATAT)2 was prepared and added to a phosphate buffer solution (pH = 6.0) containing complex 1(1:1). The solution was kept in the dark for 2.0 h. An intermediate was detected, at a yield of 57%, with a signal at 650.1 for (M + H^+) as analyzed by an electron spray ionization detector in LC-mass chromatogram. Then, the solution was irradiated with 350 nm-UV light for 2.0 h at room temperature. A product was detected with a signal at 456.1 for (M + H^+). […] Then an intramolecular cyclization took place to remove the DMSO and to form a covalent bond between the N-7 nitrogen atom and the platinum in complex 1, resulting in the oligonucleotide cleavage.

C[S+](C)(=O)[Pt-2]1([Cl])[O][n+]2ccccc2[S]1 (centres unmarked) [complex 1, PtCl(DMSO)[η^2-C5H4SN(O)]]
yield of intermediate (complex bound to guanine) (2'-deoxyguanosine; excess of complex, followed by piperidine treatment): 42% | yield of cyclization product from intermediate (2'-deoxyguanosine; upon 350-nm UV light irradiation): 80% | site of DNA cleavage ([1]; with hot piperidine treatment): cleaved DNA at purine residues | site of DNA cleavage ([1]; without piperidine treatment): at adenine residues | (% form I) ([2]; complex 1.0 µM, pH 6.0): 37% | (% form II) ([2]; complex 1.0 µM, pH 6.0): 63% | (% form II)/ (% form I) ([2]; complex 1.0 µM, pH 6.0): 1.7 | (% form I) ([2]; complex 2.5 µM, pH 6.0): 20% | (% form II) ([2]; complex 2.5 µM, pH 6.0): 80% | (% form II)/ (% form I) ([2]; complex 2.5 µM, pH 6.0): 4.0 | (% form I) ([2]; complex 5.0 µM, pH 6.0): 7.1% | (% form II) ([2]; complex 5.0 µM, pH 6.0): 93% | (% form II)/ (% form I) ([2]; complex 5.0 µM, pH 6.0): 13 | DNA forms observed on gel ([2]; complex 5.0 µM, pH 5.0): only cleaved DNA was observed | DNA forms observed on gel ([2]; complex 5.0 µM, pH 6.0): only cleaved DNA was observed | DNA forms observed on gel ([2]; complex 5.0 µM, pH 7.0): only cleaved DNA was observed | DNA forms observed on gel ([2]; complex 5.0 µM, pH 8.0): both supercoiled circular DNA and cleaved DNA were observed | DNA cleaving activity ([2]; concentration as low as 1.0 µM): very strong DNA cleaving activity | (% form I) ([3]; complex 500 µM, pH 6.0): 93% | (% form II) ([3]; complex 500 µM, pH 6.0): 7.0% | (% form II)/ (% form I) ([3]; complex 500 µM, pH 6.0): 0.070 | cleavage of single-strand DNA [3]: did not occur | yield of intermediate (complex bound to adenine) [4]: 57%
